Assay results: US20070191336A1 (priority 2003, published 2007)

Target: T1, phospho p-38 alpha kinase (Homo sapiens, UniProt Q16539)
T1 construct: purchased Panvera
Experiment: P-38 alpha kinase assay (spectrophotometric, pyruvate kinase/lactate dehydrogenase coupled)
Type: biochemical
Conditions: Table 3; rates from […] to 2 h time frame
Experimental: In this assay, the oxidation of NADH was continuously measured spectrophometrically. […] The reaction was initiated by adding ATP. The absorption at 340 nm was monitored continuously for up to 4 hours at 30° C. on Polarstar Optima plate reader (BMG). The kinase activity (reaction rate) was calculated from the slope at the time frame from 1.5 h to 2 h.
For inhibition determinations, test compounds were incubated with the reaction mixture for ˜5 min before adding ATP to start the reaction. […] IC50 values were calculated from a series of % inhibition values determined at a range of concentrations of each inhibitor using Prism to process the data and fit inhibition curves. Generally, the rates obtained at the time frame of 1.5 h to 2 h were used for these calculations.

T1 sequence (Q16539 whole entry): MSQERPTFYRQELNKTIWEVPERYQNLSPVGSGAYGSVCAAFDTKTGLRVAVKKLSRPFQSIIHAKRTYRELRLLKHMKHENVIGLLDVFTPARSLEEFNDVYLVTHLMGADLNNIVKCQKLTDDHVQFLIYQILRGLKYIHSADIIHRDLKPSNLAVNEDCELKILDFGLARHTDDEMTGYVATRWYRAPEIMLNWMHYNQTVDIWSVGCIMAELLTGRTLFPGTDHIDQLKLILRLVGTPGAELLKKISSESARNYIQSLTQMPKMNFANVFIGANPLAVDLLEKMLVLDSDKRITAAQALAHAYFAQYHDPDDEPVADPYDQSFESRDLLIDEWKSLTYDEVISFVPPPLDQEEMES

IC50 [nM]	Structure (SMILES)
1000	COc1cccc(-n2nc(C(F)(F)F)cc2NC(=O)Nc2cccc3ccccc23)c1 [Example 342, 1-(3-(trifluoromethyl)-1-(3-methoxyphenyl)-1H-pyrazol-5-yl)-3-(naphthalen-1-yl)urea]
180	COc1cccc(-n2nc(C(C)(C)C)cc2NC(=O)Nc2ccccc2F)c1 [Example 344, 1-[3-t-butyl-1-(3-methoxy-phenyl)-1H-pyrazol-5-yl]-3-(2-fluorophenyl)urea]
270	COc1cccc(-n2nc(C(C)(C)C)cc2NC(=O)Nc2cccc(F)c2F)c1 [Example 345, 1-[3-t-butyl-1-(3-methoxy-phenyl)-1H-pyrazol-5-yl]-3-(2,3-difluorophenyl)urea]
43	CC(C)(C)c1cc(NC(=O)Nc2ccccc2F)n(-c2cccc(CC(N)=O)c2)n1 [Example 352, 1-{1-[3-(2-amino-2-oxoethyl)phenyl]-3-t-butyl-1H-pyrazol-5-yl}-3-(2-fluorophenyl)urea]
59	CC(C)(C)c1cc(NC(=O)Nc2cccc(Br)c2)n(-c2cccc(C#N)c2)n1 [Example 356, 1-(3-t-butyl-1-(3-cyanophenyl)-1H-pyrazol-5-yl)-3-(3-bromophenyl)urea]
130	CC(C)(C)c1cc(NC(=O)Nc2ccc3c(c2)OCO3)n(-c2cccc(C#N)c2)n1 [Example 357, 1-(benzo[d][1,3]dioxol-5-yl)-3-(3-t-butyl-1-(3-cyanophenyl)-1H-pyrazol-5-yl)urea]
390	COc1cccc(NC(=O)Nc2cc(C(C)(C)C)nn2-c2cccc(C#N)c2)c1 [Example 360]
870	CC(C)(C)c1cc(NC(=O)Nc2cccc(C(F)(F)F)c2)n(-c2cccc(C#N)c2)n1 [Example 361]
10	CCOC(=O)CCc1cccc(-n2nc(C(C)(C)C)cc2NC(=O)Nc2cccc(Cl)c2Cl)c1 [Example 364, 3-(3-{3-t-butyl-5-[3-(2,3-dichlorophenyl)ureido]-1H-pyrazol-1-yl}phenyl)propionic acid ethyl ester]
7	CC(C)(C)c1cc(NC(=O)Nc2cccc(Cl)c2Cl)n(-c2cccc(CCC(=O)O)c2)n1 [Example 365, 3-(3-{3-t-Butyl-5-[3-(2,3-dichloro-phenyl)ureido]-1H-pyrazol-1-yl}-phenyl)propionic acid]
1460	CN(C)CCc1cccc(-n2nc(C(C)(C)C)cc2NC(=O)Nc2ccc(Cl)cc2)c1 [Example 372, 1-{3-t-butyl-1-[3-(2-(dimethylamino)ethyl]phenyl}-1H-pyrazol-5-yl)-3-(4-chlorophenyl)urea]
480	CC(C)(C)c1cc(NC(=O)Nc2cccc(Br)c2)n(-c2cccc(CCN)c2)n1 [Example 376, 1-{1-[3-(2-aminoethyl)phenyl]-3-t-butyl-1H-pyrazol-5-yl}-3-(3-bromophenyl)urea]
2000	CC(C)(C)c1cc(NC(=O)Nc2cccc(C(F)(F)F)c2)n(-c2cccc(CCN)c2)n1 [Example 380, 1-{1-[3-(2-aminoethyl)phenyl]-3-t-butyl-1H-pyrazol-5-yl}-3-[3-(trifluoromethyl)phenyl]urea]
880	COc1cccc(NC(=O)Nc2cc(C(C)(C)C)nn2-c2cccc(CCN)c2)c1 [Example 382, 1-{1-[3-(2-aminoethyl)phenyl]-3-t-butyl-1H-pyrazol-5-yl}-3-(3-methoxyphenyl)urea]
30	CC(C)(C)c1cc(NC(=O)Nc2cccc(Cl)c2)n(-c2cccc(C#N)c2)n1 [Example 385, 1-(3-t-butyl-1-(3-cyanophenyl)-1H-pyrazol-5-yl)-3-(3-chlorophenyl)urea]
4450	CC(C)(C)c1cc(NC(=O)Nc2cccc(C(F)(F)F)c2)n(-c2cccc(CN)c2)n1 [Example 387, 1-{1-[3-(aminomethyl)phenyl]-3-t-butyl-1H-pyrazol-5-yl}-3-(3-(trifluoro-methyl)phenyl)urea]
1650	COc1cccc(NC(=O)Nc2cc(C(C)(C)C)nn2-c2cccc(CN)c2)c1 [Example 388, 1-{1-[3-(aminomethyl)phenyl]-3-t-butyl-1H-pyrazol-5-yl}-3-(3-methoxy-phenyl)urea]
910	CC(C)(C)c1cc(NC(=O)Nc2ccc3c(c2)OCO3)n(-c2cccc(CN)c2)n1 [Example 391, 1-{1-[3-(aminomethyl)phenyl]-3-t-butyl-1H-pyrazol-5-yl}-3-(benzo-[d][1,3]dioxol-5-yl)urea]

Structure (SMILES)	IC50 [nM]
CC(C)(C)c1cc(NC(=O)Nc2cccc(F)c2F)n(-c2cccc(C#N)c2)n1 [Example 355, 1-[3-t-butyl-1-(3-cyan-phenyl)-1H-pyrazol-5-yl]-3-(2,3-difluorophenyl)urea]	42
CC(C)(C)c1cc(NC(=O)Nc2ccc(Cl)cc2)n(-c2cccc(C#N)c2)n1 [Example 358, 1-(3-t-butyl-1-(3-cyanophenyl)-1H-pyrazol-5-yl)-3-(4-chlorophenyl)urea]	100
CC(C)(C)c1cc(NC(=O)Nc2cccc(Cl)c2Cl)n(-c2cccc(C#N)c2)n1 [Example 359]	13
CC(C)(C)c1cc(NC(=O)Nc2ccccc2F)n(-c2cccc(CCC(=O)O)c2)n1 [Example 363, 3-(3-{3-t-butyl-5-[3-(2-fluorophenyl)ureido]-11H-pyrazol-1-yl}-phenyl)propionic acid]	190
CC(C)(C)c1cc(NC(=O)Nc2cccc(Cl)c2Cl)n(-c2cccc(CCN)c2)n1 [Example 374, 1-{1-[3-(2-aminoethyl)phenyl]-3-t-butyl-1H-pyrazol-5-yl}-3-(2,3-dichlorophenyl)urea]	37
CC(C)(C)c1cc(NC(=O)Nc2cccc(Cl)c2)n(-c2cccc(CCN)c2)n1 [Example 378, 1-{1-[3-(2-aminoethyl)phenyl]-3-t-butyl-1H-pyrazol-5-yl}-3-(3-chlorophenyl)urea]	400
CN(C)CCc1cccc(-n2nc(C(C)(C)C)cc2NC(=O)Nc2cccc(Cl)c2Cl)c1 [Example 383, 1-(3-t-butyl-1-{3-[2-(dimethylamino)ethyl]phenyl}-1H-pyrazol-5-yl)-3-(2,3-di-chlorophenyl)urea]	100
CC(C)(C)c1cc(NC(=O)Nc2cccc(Cl)c2)n(-c2cccc(CN)c2)n1 [Example 386, 1-{1-[3-(aminomethyl)phenyl]-3-t-butyl-1H-pyrazol-5-yl}-3-(3-chloro-phenyl)urea]	114

Same assay, conditions: read-out: % Inhibition @ concentration, Table 3; at 0.1 uM

Structure (SMILES)	inhibition at 0.1 µM [%]
COc1ccc(-n2nc(C(C)(C)C)cc2NC(=O)Nc2ccccc2F)cc1 [Example 346, 1-[3-t-butyl-1-(4-methoxyphenyl)-1H-pyrazol-5-yl]-3-(2-fluorophenyl)urea]	19
COc1ccc(-n2nc(C(C)(C)C)cc2NC(=O)Nc2cccc(C(F)(F)F)c2)cc1 [Example 347, 1-[3-t-butyl-1-(4-methoxyphenyl)-1H-pyrazol-5-yl]-3-(3-trifluoromethylphenyl)urea]	8
COc1ccc(-n2nc(C(C)(C)C)cc2NC(=O)Nc2cccc(OC)c2)cc1 [Example 348, 1-[3-t-butyl-1-(4-methoxyphenyl)-1H-pyrazol-5-yl]-3-(3-methoxy-phenyl)urea]	17
COc1ccc(-n2nc(C(C)(C)C)cc2NC(=O)Nc2cccc(Cl)c2)cc1 [Example 350, 1-[3-t-butyl-1-(4-methoxyphenyl)-1H-pyrazol-5-yl]-3-(3-chlorophenyl)urea]	39
CC(C)(C)c1cc(NC(=O)Nc2ccc(Cl)cc2)n(-c2cccc(CN)c2)n1 [Example 390, 1-{1-[3-(aminomethyl)phenyl]-3-t-butyl-1H-pyrazol-5-yl}-3-(4-chloro-phenyl)urea]	24
CC(C)(C)c1cc(NC(=O)Nc2cccc(Cl)c2Cl)n(-c2cccc(C(N)=O)c2)n1 [Example 392, 1-[3-t-butyl-1-(3-carbamoylphenyl)-1H-pyrazol-5-yl]-3-(2,3-dichlorophenyl)urea]	75

Same assay, conditions: read-out: % Inhibition @ concentration, Table 3; at 1 uM

Structure (SMILES)	inhibition at 1 µM [%]
COc1ccc(-n2nc(C(C)(C)C)cc2NC(=O)Nc2ccccc2F)cc1 [Example 346, 1-[3-t-butyl-1-(4-methoxyphenyl)-1H-pyrazol-5-yl]-3-(2-fluorophenyl)urea]	63
COc1ccc(-n2nc(C(C)(C)C)cc2NC(=O)Nc2cccc(C(F)(F)F)c2)cc1 [Example 347, 1-[3-t-butyl-1-(4-methoxyphenyl)-1H-pyrazol-5-yl]-3-(3-trifluoromethylphenyl)urea]	31
COc1ccc(-n2nc(C(C)(C)C)cc2NC(=O)Nc2cccc(OC)c2)cc1 [Example 348, 1-[3-t-butyl-1-(4-methoxyphenyl)-1H-pyrazol-5-yl]-3-(3-methoxy-phenyl)urea]	47
COc1ccc(-n2nc(C(C)(C)C)cc2NC(=O)Nc2cccc(Cl)c2)cc1 [Example 350, 1-[3-t-butyl-1-(4-methoxyphenyl)-1H-pyrazol-5-yl]-3-(3-chlorophenyl)urea]	64
CC(C)(C)c1cc(NC(=O)Nc2cccc(Br)c2)n(-c2cccc(CN)c2)n1 [Example 384, 1-{1-[3-(aminomethyl)phenyl]-3-t-butyl-1H-pyrazol-5-yl}-3-(3-bromophenyl)urea]	72
CC(C)(C)c1cc(NC(=O)Nc2ccc(Cl)cc2)n(-c2cccc(CN)c2)n1 [Example 390, 1-{1-[3-(aminomethyl)phenyl]-3-t-butyl-1H-pyrazol-5-yl}-3-(4-chloro-phenyl)urea]	63
CC(C)(C)c1cc(NC(=O)Nc2cccc(Cl)c2Cl)n(-c2cccc(C(N)=O)c2)n1 [Example 392, 1-[3-t-butyl-1-(3-carbamoylphenyl)-1H-pyrazol-5-yl]-3-(2,3-dichlorophenyl)urea]	86

Same assay, conditions: read-out: % Inhibition @ concentration, Table 3; at 2 uM

Structure (SMILES)	inhibition at 2 µM [%]
COc1cccc(-n2nc(C)cc2NC(=O)Nc2cccc(C(F)(F)F)c2)c1 [Example 338, 1-(1-(3-methoxyphenyl)-3-methyl-1H-pyrazol-5-yl)-3-(3-(trifluoromethyl)phenyl)urea]	7
COc1cccc(NC(=O)Nc2cc(C)nn2-c2cccc(OC)c2)c1 [Example 339, 1-(3-methoxyphenyl)-3-(1-(3-methoxyphenyl)-3-methyl-1H-pyrazol-5-yl)urea]	9

Same assay, conditions: read-out: % Inhibition @ concentration, Table 3; at 10 uM

Structure (SMILES)	inhibition at 10 µM [%]
COc1cccc(-n2nc(C)cc2NC(=O)Nc2cccc(Br)c2)c1 [Example 337, 1-(3-bromophenyl)-3-(1-(3-methoxyphenyl)-3-methyl-1H-pyrazol-5-yl)urea]	8
COc1cccc(-n2nc(C)cc2NC(=O)Nc2cccc(Cl)c2Cl)c1 [Example 340, 1-(2,3-dichlorophenyl)-3-(1-(3-methoxyphenyl)-3-methyl-1H-pyrazol-5-yl)urea]	31
CCOC(=O)CCc1cccc(-n2nc(C(C)(C)C)cc2NC(=O)Nc2cccc3cccnc23)c1 [Example 366, 3-(3-{3-t-butyl-5-[3-(quinolin-8-yl)ureido]-1H-pyrazol-1-yl}phenyl)-propionic acid ethyl ester]	53
CC(C)(C)c1cc(NC(=O)Nc2cccc3cccnc23)n(-c2cccc(CCC(=O)O)c2)n1 [Example 367, 3-(3-{3-t-butyl-5-[3-(quinolin-8-yl)ureido]-1H-pyrazol-1-yl}phenyl)-propionic acid]	85
CC(C)(C)c1cc(NC(=O)Nc2cccc(Br)c2)n(-c2cccc(CN)c2)n1 [Example 384, 1-{1-[3-(aminomethyl)phenyl]-3-t-butyl-1H-pyrazol-5-yl}-3-(3-bromophenyl)urea]	96
